{"source": "patent US20060233842A1", "about": "“Microemulsion composition for oral administration of biphenyldimethyldicarboxylate” (priority 2002, published 2006)", "origin": "cited, not measured here", "note": "Like-named read-outs stand apart in the source and are kept apart here."}
{"molecule": "CC(=O)OCC(COC(C)=O)OC(C)=O", "note": "[triacetine]", "values": [{"measurement": "LD50 for acute oral toxicity", "result": 1.1, "unit": "g/kg"}]}
{"molecule": "CCOCCOCCO", "note": "[transcutol, diethyleneglycol monoethylether]", "values": [{"measurement": "LD50 for acute oral toxicity", "setting": "Gattefosse product profile", "result": "7.95 ml (specific gravity, 0.989)/kg"}]}
